Experimental data as given in patent US20080076703A1, “Compositions and methods for the enhanced uptake of therapeutic agents through the bladder epithelium” (Cell Genesys, Inc., priority 2003, published 2008).

Assays:
bladder tissue = settings: after DDM pretreatment; cited from earlier work
murine bladders [1] = assay: FITC-LC-TAT peptide uptake in bladder after intravesical instillation (fluorescence microscopy of bladder sections); type: in vivo, Balb/c mice; settings: 0.1% DDM pretreatment; 5 μg FITC-LC-TAT instilled, retained 15 min
Method: Female Balb/c mice were used due to the ease of urethral cannulation and intravesical instillation. All animals were housed according to institutional regulations for experimental animals. Balb/c mice (20 gm body weight) were anesthetized with Isoflurane, and a 24-gauge catheter was introduced through the urethra into the bladder. The residual urine was emptied and the bladder was flushed three times with 100 μL of PBS employing a 25-gauge needle inserted into the external end of the catheter. After washing, bladder pretreatment was performed employing the various test reagents as follows: the pretreatment reagent (DDM) was diluted to the desired concentration in PBS, and the bladder was quickly rinsed twice with 100 μL each of the reagent. After the rinsing steps, 100 μL of the pretreatment reagent was introduced via the catheter and retained in the bladder for 5 minutes, followed by an additional quick rinse with the pretreatment reagent. The bladder was then washed three times with 100 μL each of PBS. […]
(§1) 70 μL of the solution was intravesically instilled in the bladder and retained for 15 min after which the bladder was washed 3 times with 100 μL each of PBS. […] Triplicate samples were adjusted to 2.00 mL with 0.2 M carbonate buffer (pH=9.34) and spectrophotometric emission was measured at 538 nm following excitation at 485 nm. […]

murine bladders [2] = assay: Oregon Green 488 Paclitaxel uptake in bladder after intravesical instillation (fluorescence microscopy of bladder sections); type: in vivo, Balb/c mice; settings: DDM pretreatment 5 min; Oregon Green 488 Paclitaxel 5 μg instilled, retained 15 min
Method: (§2) Female Balb/c mice were used due to the ease of urethral cannulation and intravesical instillation. All animals were housed according to institutional regulations for experimental animals. Balb/c mice (20 gm body weight) were anesthetized with Isoflurane, and a 24-gauge catheter was introduced through the urethra into the bladder. The residual urine was emptied and the bladder was flushed three times with 100 μL of PBS employing a 25-gauge needle inserted into the external end of the catheter. […]
as §1
On examination of the histological sections of the bladder that had been pretreated with PBS followed by the intravesical retention of Paclitaxel, it was observed that there were very small patchy areas of non-specifically bound drug on the luminal surface of the bladder (FIGS. 1A-1C). Most of the bladder surface was devoid of any fluorescence that indicated the absence of any entry of the drug into the bladder tissue. […]

[3] = system: urothelium (GAG layer, tight junctions); assay: Electron Microscopy of the DDM pretreated bladder; type: in vivo
Mouse bladders = assay: Systemic uptake of intravesically instilled sodium fluorescein (serum fluorescence); type: in vivo, Balb/c mice; settings: 0.1% DDM pretreatment 5 min, 0.1% sodium fluorescein instilled, retained 15 min
Method: as §2, §1
Fluorescein has been used to measure alterations in bladder permeability after bladder mucosal injury in mice [Eichel, L. et al., (2001) Urology. […] Following 3× wash of the bladder with PBS, blood was removed from the mice via cardiac puncture and the serum was analyzed for systemic distribution of intravesically instilled sodium fluorescein as described above. […]

In the case of CCCCCCCCCCCCO[C@@H]1O[C@H](CO)[C@@H](O[C@H]2O[C@H](CO)[C@@H](O)[C@H](O)[C@H]2O)[C@H](O)[C@H]1O [DDM, n-dodecyl-β-D-maltoside], the “penetration of adenovirus particles (70 nm to 100 nm) into bladder tissue” value (bladder tissue) is listed as “able to penetrate the bladder tissue”, the “FITC-LC-TAT fluorescent signal in epithelial layer on luminal surface of bladder” value (murine bladders [1]) is listed as “distinct signal” and the “uptake of Paclitaxel into bladder tissue (fluorescence)” value (murine bladders [2]) is listed as “significant uptake”. For the same compound, the “GAG layer on the urothelium (electron microscopy)” value [3] was “absent”, the “tight junctions along the surface (electron microscopy)” value [3] was “Disruption of tight junctions” and the “increase in the circulating levels of fluorescein as compared to PBS pretreatment” value (Mouse bladders) was 5-10 ×.
